≈ marks a conversion by molar mass, not a printed value. Where two headings read alike, the source gives them in different places.
Columns and labels:
Format in all cases: cell-based
HIV-1(IIIB) (WT) = experiment: microbe, parasite or virus in culture
Procedure: (§1) CEM cells were suspended at 250,000 cells per ml of culture medium and infected with wild-type HIV-I(IIIB) or mutant HIV-1 strains at 100 50% cell culture infective doses per ml. Then 100 μl of the infected cell suspensions was added to 200-μl microtiter plate wells containing 100 μl of an appropriate dilution of the test compounds. After 4 days incubation at 37° C., the cell cultures were examined for syncytium formation.

HIV-1/I(0.1) 103-Asn = experiment: Sensitivity of mutant HIV-1 strain in CEM cell cultures; details: Table 5
Procedure: as §1

HIV-1/II(0.1) 100-Ile = experiment: as above; details: Table 5
Procedure: as §1

HIV-1/III(0.1) 103-Asn = experiment: as above; details: Table 5
Procedure: as §1

HIV-1/IV(0.1) 103-Thr = experiment: as above; details: Table 5
Procedure: as §1

[1] = system: HIV-1/V(0.1) 101-Ile + 141-Glu; experiment: as above; details: Table 5
Procedure: as §1

HIV-1/V(0.5) 103-Asn = experiment: as above; details: Table 5
Procedure: as §1

HIV-1/B 101Glu = experiment: as above; details: Table 5
Procedure: as §1

HIV-1 = experiment: Breakthrough of mutant HIV-1 strains in CEM cell cultures, single drugs and double/triple combinations
Procedure: The culture medium consisted of RPMI 1640 containing 10% fetal bovine serum, 2 mM L-glutamine, and 0.075% NaHCO3. The multiplicity of the initial infection was ~1000 times the CCID50 (50% cell culture infective dose). Passages were performed every 3 to 4 days by adding 0.5 to 1.0 ml of the infected culture supernatant to 5 ml of a suspension containing 4×10^5 uninfected CEM cells per ml. Syncytium formation was used as a parameter of virus breakthrough in the cell cultures. In the drug combination experiments, the compounds were combined at the same initial concentrations as used for the two lowest concentrations in the single-drug experiments.
Compound IV, BHAP and TSAO-m^3 T were added to HIV-1-infected CEM cell cultures at 0.04, 0.10 and 0.25 ug/ml (Compound IV and BHAP) or 1.0, 2.5 and 5.0 μg/ml (TSAO-m^3 T). In addition, various double- and triple-drug combinations of Compound IV, BHAP and TSAO-m^3 T were performed, combining these inhibitors at their lowest (0.04 μg/ml) or intermediary (0.1 μg/ml) concentration as used in the single-drug experiments.

[2] = Human immunodeficiency virus 1, CCRF-CEM, read-out: EC50

## CCOCn1c(Cc2ccccc2)c(C(C)C)c(=O)[nH]c1=O [MKC-442]
HIV-1(IIIB) (WT); HIV-1 (III8), Table 5
  EC50: 0.0006 µg/mL (≈ 0.00198 µM)
HIV-1/I(0.1) 103-Asn
  EC50: 0.08 µg/mL (≈ 0.265 µM)
HIV-1/II(0.1) 100-Ile
  EC50: 0.40 µg/mL (≈ 1.32 µM)
HIV-1/III(0.1) 103-Asn
  EC50: 0.01 µg/mL (≈ 0.0331 µM)
HIV-1/IV(0.1) 103-Thr
  EC50: 0.32 µg/mL (≈ 1.06 µM)
[1]
  EC50: 0.008 µg/mL (≈ 0.0265 µM)
HIV-1/V(0.5) 103-Asn
  EC50: 0.35 µg/mL (≈ 1.16 µM)

## CC(C)Nc1cccnc1N1CCN(C(=O)c2cc3cc(NS(C)(=O)=O)ccc3[nH]2)CC1 [BHAP U90152]
HIV-1(IIIB) (WT)
  EC50: 0.010 µg/mL (≈ 0.0219 µM)
HIV-1/B 101Glu
  EC50: 1.0 µg/mL (≈ 2.19 µM)
HIV-1/I(0.1) 103-Asn
  EC50: 0.25 µg/mL (≈ 0.548 µM)
HIV-1/II(0.1) 100-Ile
  EC50: 0.67 µg/mL (≈ 1.47 µM)
HIV-1/III(0.1) 103-Asn
  EC50: 0.05 µg/mL (≈ 0.11 µM)
HIV-1/IV(0.1) 103-Thr
  EC50: 0.47 µg/mL (≈ 1.03 µM)
[1]
  EC50: 0.10 µg/mL (≈ 0.219 µM)
HIV-1/V(0.5) 103-Asn
  EC50: 0.50 µg/mL (≈ 1.1 µM)
HIV-1; single drug 0.04 μg/ml, day 4 post infection
  HIV-1-induced syncytium formation in CEM cells: 0 percentage of control
HIV-1; single drug 0.04 μg/ml, day 7 post infection
  HIV-1-induced syncytium formation in CEM cells: 12.5 percentage of control
HIV-1; single drug 0.04 μg/ml, day 11 post infection
  HIV-1-induced syncytium formation in CEM cells: 75 percentage of control
HIV-1; single drug 0.04 μg/ml, day 14 post infection
  HIV-1-induced syncytium formation in CEM cells: 100 percentage of control
HIV-1; single drug 0.04 μg/ml, day 18 post infection
  HIV-1-induced syncytium formation in CEM cells: 100 percentage of control
HIV-1; single drug 0.04 μg/ml, day 21 post infection
  HIV-1-induced syncytium formation in CEM cells: 100 percentage of control
HIV-1; single drug 0.04 μg/ml, day 25 post infection
  HIV-1-induced syncytium formation in CEM cells: 100 percentage of control
HIV-1; single drug 0.04 μg/ml, day 28 post infection
  HIV-1-induced syncytium formation in CEM cells: 100 percentage of control
HIV-1; single drug 0.04 μg/ml, day 32 post infection
  HIV-1-induced syncytium formation in CEM cells: 100 percentage of control
HIV-1; single drug 0.04 μg/ml, day 35 post infection
  HIV-1-induced syncytium formation in CEM cells: 100 percentage of control
HIV-1; single drug 0.04 μg/ml, day 39 post infection
  HIV-1-induced syncytium formation in CEM cells: 100 percentage of control
HIV-1; single drug 0.04 μg/ml, day 42 post infection
  HIV-1-induced syncytium formation in CEM cells: 100 percentage of control
HIV-1; single drug 0.04 μg/ml, day 46 post infection
  HIV-1-induced syncytium formation in CEM cells: 100 percentage of control
HIV-1; single drug 0.04 μg/ml, day 49 post infection
  HIV-1-induced syncytium formation in CEM cells: 100 percentage of control
HIV-1; single drug 0.04 μg/ml, day 53 post infection
  HIV-1-induced syncytium formation in CEM cells: 100 percentage of control
HIV-1; single drug 0.04 μg/ml, day 56 post infection
  HIV-1-induced syncytium formation in CEM cells: 100 percentage of control
HIV-1; single drug 0.04 μg/ml, day 60 post infection
  HIV-1-induced syncytium formation in CEM cells: 100 percentage of control
HIV-1; single drug 0.04 μg/ml, day 64 post infection
  HIV-1-induced syncytium formation in CEM cells: 100 percentage of control
HIV-1; single drug 0.04 μg/ml, day 67 post infection
  HIV-1-induced syncytium formation in CEM cells: 100 percentage of control
HIV-1; single drug 0.04 μg/ml, day 71 post infection
  HIV-1-induced syncytium formation in CEM cells: 100 percentage of control
HIV-1; single drug 0.04 μg/ml, day 74 post infection
  HIV-1-induced syncytium formation in CEM cells: 100 percentage of control
HIV-1; single drug 0.04 μg/ml, day 77 post infection
  HIV-1-induced syncytium formation in CEM cells: 100 percentage of control
HIV-1; single drug 0.10 μg/ml, day 4 post infection
  HIV-1-induced syncytium formation in CEM cells: 0 percentage of control
HIV-1; single drug 0.10 μg/ml, day 7 post infection
  HIV-1-induced syncytium formation in CEM cells: 0 percentage of control
HIV-1; single drug 0.10 μg/ml, day 11 post infection
  HIV-1-induced syncytium formation in CEM cells: 0 percentage of control
HIV-1; single drug 0.10 μg/ml, day 14 post infection
  HIV-1-induced syncytium formation in CEM cells: 12.5 percentage of control
HIV-1; single drug 0.10 μg/ml, day 18 post infection
  HIV-1-induced syncytium formation in CEM cells: 75 percentage of control
HIV-1; single drug 0.10 μg/ml, day 21 post infection
  HIV-1-induced syncytium formation in CEM cells: 100 percentage of control
HIV-1; single drug 0.10 μg/ml, day 25 post infection
  HIV-1-induced syncytium formation in CEM cells: 100 percentage of control
HIV-1; single drug 0.10 μg/ml, day 28 post infection
  HIV-1-induced syncytium formation in CEM cells: 100 percentage of control
HIV-1; single drug 0.10 μg/ml, day 32 post infection
  HIV-1-induced syncytium formation in CEM cells: 100 percentage of control
HIV-1; single drug 0.10 μg/ml, day 35 post infection
  HIV-1-induced syncytium formation in CEM cells: 100 percentage of control
HIV-1; single drug 0.10 μg/ml, day 39 post infection
  HIV-1-induced syncytium formation in CEM cells: 100 percentage of control
HIV-1; single drug 0.10 μg/ml, day 42 post infection
  HIV-1-induced syncytium formation in CEM cells: 100 percentage of control
HIV-1; single drug 0.10 μg/ml, day 46 post infection
  HIV-1-induced syncytium formation in CEM cells: 100 percentage of control
HIV-1; single drug 0.10 μg/ml, day 49 post infection
  HIV-1-induced syncytium formation in CEM cells: 100 percentage of control
HIV-1; single drug 0.10 μg/ml, day 53 post infection
  HIV-1-induced syncytium formation in CEM cells: 100 percentage of control
HIV-1; single drug 0.10 μg/ml, day 56 post infection
  HIV-1-induced syncytium formation in CEM cells: 100 percentage of control
HIV-1; single drug 0.10 μg/ml, day 60 post infection
  HIV-1-induced syncytium formation in CEM cells: 100 percentage of control
HIV-1; single drug 0.10 μg/ml, day 64 post infection
  HIV-1-induced syncytium formation in CEM cells: 100 percentage of control
HIV-1; single drug 0.10 μg/ml, day 67 post infection
  HIV-1-induced syncytium formation in CEM cells: 100 percentage of control
HIV-1; single drug 0.10 μg/ml, day 71 post infection
  HIV-1-induced syncytium formation in CEM cells: 100 percentage of control
HIV-1; single drug 0.10 μg/ml, day 74 post infection
  HIV-1-induced syncytium formation in CEM cells: 100 percentage of control
HIV-1; single drug 0.10 μg/ml, day 77 post infection
  HIV-1-induced syncytium formation in CEM cells: 100 percentage of control
HIV-1; single drug 0.25 μg/ml, day 4 post infection
  HIV-1-induced syncytium formation in CEM cells: 0 percentage of control
HIV-1; single drug 0.25 μg/ml, day 7 post infection
  HIV-1-induced syncytium formation in CEM cells: 0 percentage of control
HIV-1; single drug 0.25 μg/ml, day 11 post infection
  HIV-1-induced syncytium formation in CEM cells: 0 percentage of control
HIV-1; single drug 0.25 μg/ml, day 14 post infection
  HIV-1-induced syncytium formation in CEM cells: 6.25 percentage of control
HIV-1; single drug 0.25 μg/ml, day 18 post infection
  HIV-1-induced syncytium formation in CEM cells: 50 percentage of control
HIV-1; single drug 0.25 μg/ml, day 21 post infection
  HIV-1-induced syncytium formation in CEM cells: 100 percentage of control
HIV-1; single drug 0.25 μg/ml, day 25 post infection
  HIV-1-induced syncytium formation in CEM cells: 100 percentage of control
HIV-1; single drug 0.25 μg/ml, day 28 post infection
  HIV-1-induced syncytium formation in CEM cells: 100 percentage of control
HIV-1; single drug 0.25 μg/ml, day 32 post infection
  HIV-1-induced syncytium formation in CEM cells: 100 percentage of control
HIV-1; single drug 0.25 μg/ml, day 35 post infection
  HIV-1-induced syncytium formation in CEM cells: 100 percentage of control
HIV-1; single drug 0.25 μg/ml, day 39 post infection
  HIV-1-induced syncytium formation in CEM cells: 100 percentage of control
HIV-1; single drug 0.25 μg/ml, day 42 post infection
  HIV-1-induced syncytium formation in CEM cells: 100 percentage of control
HIV-1; single drug 0.25 μg/ml, day 46 post infection
  HIV-1-induced syncytium formation in CEM cells: 100 percentage of control
HIV-1; single drug 0.25 μg/ml, day 49 post infection
  HIV-1-induced syncytium formation in CEM cells: 100 percentage of control
HIV-1; single drug 0.25 μg/ml, day 53 post infection
  HIV-1-induced syncytium formation in CEM cells: 100 percentage of control
HIV-1; single drug 0.25 μg/ml, day 56 post infection
  HIV-1-induced syncytium formation in CEM cells: 100 percentage of control
HIV-1; single drug 0.25 μg/ml, day 60 post infection
  HIV-1-induced syncytium formation in CEM cells: 100 percentage of control
HIV-1; single drug 0.25 μg/ml, day 64 post infection
  HIV-1-induced syncytium formation in CEM cells: 100 percentage of control
HIV-1; single drug 0.25 μg/ml, day 67 post infection
  HIV-1-induced syncytium formation in CEM cells: 100 percentage of control
HIV-1; single drug 0.25 μg/ml, day 71 post infection
  HIV-1-induced syncytium formation in CEM cells: 100 percentage of control
HIV-1; single drug 0.25 μg/ml, day 74 post infection
  HIV-1-induced syncytium formation in CEM cells: 100 percentage of control
HIV-1; single drug 0.25 μg/ml, day 77 post infection
  HIV-1-induced syncytium formation in CEM cells: 100 percentage of control
HIV-1; single drug, higher concentrations
  virus breakthrough delayed till day: 14 days

## Nc1ccn([C@@H]2CS[C@H](CO)O2)c(=O)n1 [Compound 3TC, (-)-2'-deoxy-3'-thiacytidine]
HIV-1(IIIB) (WT); Human immunodeficiency virus 1, IIIB, CCRF-CEM, HIV-1 (III8), Table 5, read-out: EC50
  EC50: 0.008 µg/mL (≈ 0.0349 µM)
HIV-1/I(0.1) 103-Asn; [2]
  EC50: 0.03 µg/mL (≈ 0.131 µM)
HIV-1/II(0.1) 100-Ile; [2]
  EC50: 0.05 µg/mL (≈ 0.218 µM)
HIV-1/III(0.1) 103-Asn; [2]
  EC50: 0.03 µg/mL (≈ 0.131 µM)
HIV-1/IV(0.1) 103-Thr; [2]
  EC50: 0.03 µg/mL (≈ 0.131 µM)
[1]; [2]
  EC50: 0.04 µg/mL (≈ 0.174 µM)
HIV-1/V(0.5) 103-Asn; [2]
  EC50: 0.04 µg/mL (≈ 0.174 µM)

— US5968910A, “Compositions containing two or three inhibitors of different HIV reverse transcriptases” (priority 1994, dated 1999)
